This assay relates to B16-F1 mouse melanoma cells. The experiment in a line: Melanin Synthesis Assay. The class given is cell-based. On the procedure:
A B16-F1 mouse melanoma cell line may be employed as an assay to measure melanin synthesis. The B16-F1 cells may be obtained from American Tissue Culture Collection, Virginia, USA. The cell culture medium that may be used in the assay may comprise 500 mL of Dulbecco's Modified Eagle's Medium (DMEM), 50 mL Fetal Bovine Serum (FBS), and 5 mL of penicillin-streptomycin liquid. B16-F1 cells that are cultured in this medium and grown to greater than 90% confluency synthesize melanin. While not intending to be bound by any theory, it is hypothesized that melanin synthesis is stimulated by the culture medium and/or stress induced by growth to a high confluency. […] Equipment used in the assay include a CO2 incubator, such as a Forma Series Model 3110 by Therma Scientific, Massachusetts, USA; a hemocytometer, such as a Bright Line model by Hauser Scientific, Pennsylvania, USA; and a UV-Visible Spectrum Plate Reader, such as a SpectraMax250 from Molecular Devices, California, USA. […] Read the 96 well plate using the UV-Vis Plate Reader at 410 nm to optically measure the amount of melanin produced between wells that are treated with [test compound] and control wells that are not treated with a test compound. […] Percentage of melanin synthesis inhibition is calculated by the following equation: [formula] Where OD410 is the Optical Density at 410 nm as measured by the UV-Vis Spectrum Plate Reader. […]

Take `CC(C)=CCC[C@](C)(O)[C@@H]1CC=C(C)CC1` [Sample 1, bisabolol]: the “Average Melanin % Inhibition” value (OD 410 nm, Bis 0.1%, HD 0.00056%, UP 0.00011%, Nia 0.00056% where present) is listed as 2.2%. The “reduction of the production of melanin as compared to Sample 4 (HD/UP/Nia)” value (statistical comparison versus Sample 4) was “did not significantly reduce”.

For the origin of these results see patent publication US20150352022A1, “Cosmetic Compositions and Methods For Inhibiting Melanin Synthesis” (The Procter & Gamble Company, priority 2013, published 2015).
